Assay results as given in publication PMC9202051 (ACS Omega, 2022).
Read-outs that look alike come from different tables or passages of the source.

Legend:
soybean 15-LOX = target: T1, soybean 15-LOX (Glycine max, UniProt P08170); test: soybean 15-LOX inhibition assay; type: biochemical; settings: for inhibition at 250 µM: read-out: inhibition (%) at 0.25 mM
T1 sequence (P08170 1-839): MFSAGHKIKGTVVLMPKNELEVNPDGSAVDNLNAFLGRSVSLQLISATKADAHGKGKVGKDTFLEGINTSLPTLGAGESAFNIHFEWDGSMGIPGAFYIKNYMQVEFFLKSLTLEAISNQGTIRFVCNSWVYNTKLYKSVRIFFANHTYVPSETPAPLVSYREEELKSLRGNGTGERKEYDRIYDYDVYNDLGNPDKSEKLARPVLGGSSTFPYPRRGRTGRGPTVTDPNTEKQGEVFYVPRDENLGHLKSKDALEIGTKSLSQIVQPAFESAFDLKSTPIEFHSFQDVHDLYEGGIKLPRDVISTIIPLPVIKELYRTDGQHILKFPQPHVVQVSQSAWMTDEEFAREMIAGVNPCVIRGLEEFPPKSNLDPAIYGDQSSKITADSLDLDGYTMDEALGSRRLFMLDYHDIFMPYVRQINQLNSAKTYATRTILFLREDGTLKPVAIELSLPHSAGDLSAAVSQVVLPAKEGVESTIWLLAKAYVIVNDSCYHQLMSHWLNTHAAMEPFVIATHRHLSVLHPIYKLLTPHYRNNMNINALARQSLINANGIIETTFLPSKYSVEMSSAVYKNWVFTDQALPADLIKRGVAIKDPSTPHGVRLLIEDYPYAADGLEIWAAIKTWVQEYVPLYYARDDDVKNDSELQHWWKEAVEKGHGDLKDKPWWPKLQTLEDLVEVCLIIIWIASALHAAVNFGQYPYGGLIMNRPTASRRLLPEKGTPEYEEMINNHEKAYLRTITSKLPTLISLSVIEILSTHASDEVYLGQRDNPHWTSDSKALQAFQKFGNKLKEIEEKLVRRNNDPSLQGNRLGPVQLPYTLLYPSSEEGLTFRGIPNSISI

[1] = tested on: blood mononuclear cells (MNCs); test: MTT cell viability assay; type: cell-based, human; settings: MTT assay, 0.25 mM, mononuclear cells; mean ± SEM, n = 3
MTT cell viability assay = type: cell-based, human; settings: human, blood mononuclear cells (MNCs)

Compound | inhibition at 250 µM (soybean 15-LOX) [%] | IC50 (soybean 15-LOX) [µM] | viability at 0.25 mM (MTT cell viability assay) [%] | further results
O=c1c(O)c(-c2ccc(O)c(O)c2)oc2cc(O)cc(O)c12 [quercetin, reference compound] | 92.6 ± 1.24 |  |  | 
2-((5-(4-Chlorophenyl)-4-(furan-2-ylmethyl)-4H-1,2,4-triazol-3-yl)thio)-N-(m-tolyl) Methylacetamide [Compound 7f] |  |  |  | inhibition (%) at 0.25 mM (soybean 15-LOX; 0.25 mM, mean ± SEM, n = 3): 82.13 ± 1.85%; IC50 (soybean 15-LOX; mean ± SEM, n = 3): 45.4 ± 0.72 µM; cell viability (%) at 0.25 mM [1]: 90.21 ± 1.2%
O=c1cc(-c2ccccc2)oc2cc(O)c(O)c(O)c12 [baicalein, reference compound] |  | 2.24 ± 0.13 |  | 
COc1cc(/C=C/C(=O)CC(=O)/C=C/c2ccc(O)c(OC)c2)ccc1O [curcumin, reference compound] |  |  | 73.9 ± 1.5 | 
O=P1(N(CCCl)CCCl)NCCCO1 (stereo not shown) [cyclophosphamide, reference compound] |  |  | 56.5 ± 1.9 | 
CCCNC(=O)C(C)Sc1nnc(-c2ccc(Cl)cc2)n1Cc1ccco1 (stereo not shown) [Compound 7b, 2-((5-(4-Chlorophenyl)-4-(furan-2-ylmethyl)-4H-1,2,4-triazol-3-yl)thio)-N-n-propylmethylacetamide] | 89.3 ± 1.55 | 26.3 ± 0.62 | 90.1 ± 1.1 | 
